The source made the active and inactive calls. The rule behind the calls is not given here.
How the values were obtained:
[1] = Cytotoxicity against HELF cells assessed as reduction in viability at 1 to 300 uM after 48 hrs under without FBS condition by MTT assay; type: toxicity, cell-based; conditions: human, dose 1-300 µM
HELF = assay: Antifibrotic activity against TGF-beta1-induced HELF cells assessed as reduction in viability at 10 uM after 48 hrs by MTT assay; type: functional, cell-based; conditions: Homo sapiens
[2] = Cytotoxicity against HELF cells assessed as reduction in viability at 10 uM after 48 hrs by MTT assay; type: toxicity, cell-based; conditions: human
Histone deacetylase 1 = Histone deacetylase 1 (Homo sapiens, UniProt Q13547); assay: Inhibition of human HDAC1 incubated for 10 mins and measured after 30 mins by ELISA
Histone deacetylase 1, sequence (Q13547 whole entry): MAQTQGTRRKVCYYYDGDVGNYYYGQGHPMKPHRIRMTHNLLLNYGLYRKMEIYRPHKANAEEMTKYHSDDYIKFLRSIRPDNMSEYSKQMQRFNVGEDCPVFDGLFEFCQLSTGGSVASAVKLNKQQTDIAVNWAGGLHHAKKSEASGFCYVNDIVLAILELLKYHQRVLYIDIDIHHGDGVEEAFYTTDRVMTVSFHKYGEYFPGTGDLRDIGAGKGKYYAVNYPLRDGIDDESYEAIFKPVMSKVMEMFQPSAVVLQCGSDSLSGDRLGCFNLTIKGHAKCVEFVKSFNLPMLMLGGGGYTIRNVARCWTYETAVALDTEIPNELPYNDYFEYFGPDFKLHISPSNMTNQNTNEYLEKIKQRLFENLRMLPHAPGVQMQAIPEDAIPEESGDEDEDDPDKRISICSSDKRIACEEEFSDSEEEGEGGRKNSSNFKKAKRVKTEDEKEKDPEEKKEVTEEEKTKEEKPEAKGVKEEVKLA

[3] = molecular target: T1, Protein deacetylase HDAC6 (Homo sapiens, UniProt Q9UBN7); assay: Inhibition of recombinant human full length HDAC6 using Boc-Lys (Ac)-AMC as substrate incubated for 120 mins by fluorescence analysis
T1 sequence (Q9UBN7 whole entry): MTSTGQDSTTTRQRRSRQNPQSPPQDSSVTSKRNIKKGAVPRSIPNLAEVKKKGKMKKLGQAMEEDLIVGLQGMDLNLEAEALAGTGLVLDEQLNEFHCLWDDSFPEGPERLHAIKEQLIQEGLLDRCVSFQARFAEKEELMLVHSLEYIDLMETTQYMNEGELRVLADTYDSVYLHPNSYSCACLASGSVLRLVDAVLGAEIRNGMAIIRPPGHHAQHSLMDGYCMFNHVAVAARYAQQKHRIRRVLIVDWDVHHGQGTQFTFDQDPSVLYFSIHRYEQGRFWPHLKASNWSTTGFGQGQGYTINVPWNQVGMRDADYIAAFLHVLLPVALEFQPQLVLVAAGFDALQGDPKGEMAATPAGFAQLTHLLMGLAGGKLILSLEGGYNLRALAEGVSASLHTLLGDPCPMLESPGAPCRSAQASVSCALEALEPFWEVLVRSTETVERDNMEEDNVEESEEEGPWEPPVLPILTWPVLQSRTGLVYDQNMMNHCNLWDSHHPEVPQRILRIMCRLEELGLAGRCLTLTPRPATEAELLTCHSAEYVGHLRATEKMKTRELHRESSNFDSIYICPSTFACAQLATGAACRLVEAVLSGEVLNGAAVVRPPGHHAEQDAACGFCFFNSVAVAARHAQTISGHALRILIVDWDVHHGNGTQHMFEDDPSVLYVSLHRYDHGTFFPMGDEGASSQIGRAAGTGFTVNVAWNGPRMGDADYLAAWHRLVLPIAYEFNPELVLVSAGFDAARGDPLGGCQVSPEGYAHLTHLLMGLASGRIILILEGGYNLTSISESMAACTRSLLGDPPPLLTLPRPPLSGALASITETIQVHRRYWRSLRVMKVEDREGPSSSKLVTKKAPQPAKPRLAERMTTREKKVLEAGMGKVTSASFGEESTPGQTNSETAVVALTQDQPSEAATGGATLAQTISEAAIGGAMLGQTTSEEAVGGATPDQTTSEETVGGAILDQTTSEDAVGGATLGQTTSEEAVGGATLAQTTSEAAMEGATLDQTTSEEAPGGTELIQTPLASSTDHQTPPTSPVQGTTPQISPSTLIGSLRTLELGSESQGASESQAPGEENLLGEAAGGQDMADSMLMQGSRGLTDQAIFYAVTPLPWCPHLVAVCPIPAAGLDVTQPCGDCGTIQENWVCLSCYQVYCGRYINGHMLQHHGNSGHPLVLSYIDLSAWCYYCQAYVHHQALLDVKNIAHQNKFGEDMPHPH

[4] = molecular target: T1, Protein deacetylase HDAC6; assay: Inhibition of human HDAC6 using Ac-Lys (Ac)-AMC as substrate incubated for 120 mins by fluorescence analysis
Homo sapiens = organism: Homo sapiens; assay: Selectivity index, ratio IC50 inhibition of human HDAC1 to IC50 for inhibition of human HDAC6 using Ac-Lys (Ac)-AMC as substrate

| IC50 (Histone deacetylase 1) | IC50 [3] | IC50 [4] | Ratio IC50 (Homo sapiens) | Compound | Activity [1] | Activity (HELF) | Activity [2] |
| --- | --- | --- | --- | --- | --- | --- | --- |
|  |  |  |  | CN1CCc2c(c3ccccc3n2Cc2ccc(C(=O)NO)cc2)C1 [TUBASTATIN A] | Toxic | Active | Non-Toxic |
| 789 nM | 12.5 nM | 21.4 nM | 36.8 | O=C(CCCCCCCN1C(=O)[C@@H]2CCC(=O)N2Cc2ccccc21)NO |  |  |  |

— ChEMBL document CHEMBL5584244, “Discovery of novel pyrrolo[2,1-c][1,4]benzodiazepine-3,11-dione (PBD) derivatives as selective HDAC6 inhibitors for the efficient treatment of idiopathic pulmonary fibrosis (IPF) in vitro and in vivo” (Eur J Med Chem, 2024)
